Source: patent US20230159510A1, “NOVEL PRMT5 INHIBITORS” (AMGEN INC., priority 2020, published 2023)
Like-named read-outs stand apart in the source and are kept apart here.

What was measured:
PRMT5/MEP50 = PRMT5/MEP50 (Homo sapiens, UniProt O14744); experiment: MTase-Glo methyl transferase assay, Method A (Histone H4 peptide, 1 µM MTA, 24 h pre-incubation); type: biochemical; parameters: made in house; details: read-out: PRMT5 MTase Glo Ki (nM, Meth. A)
Method in brief: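 PRMT5/MEP50 (10 nM) pre-incubated 24 h with compound, 5 µM SAM and 1 µM MTA, then reaction started with 1 µM Histone H4 (1-21) peptide and run 2 h at room temperature in Tris pH 8.0 buffer. SAH formed detected by MTase-Glo luminescence; IC50 and KI from dose-response curves.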

HCT116 MTAP null cells = experiment: HCT116 proliferation assay, MTAP null cells (CellTiter-Glo, 6 days); type: cell-based; details: read-out: Protif_ HCT116-MTAP null IC50
Method in brief: (§1)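 Cells were plated in RPMI 1640 with 10% fetal bovine serum and left overnight at 37° C and 5% CO2. Compound was then added as an 8- or 9-point 1:3 dilution series from a top concentration of 1 or 10 µM, alongside a DMSO-only control. Viability was read by luminescence.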

HCT116 WT cells = experiment: HCT116 proliferation assay, WT cells (CellTiter-Glo, 6 days); type: cell-based; details: read-out: Prolif_HCT116-WT IC50
Method in brief: as §1

Sequence of PRMT5/MEP50 (O14744 whole entry): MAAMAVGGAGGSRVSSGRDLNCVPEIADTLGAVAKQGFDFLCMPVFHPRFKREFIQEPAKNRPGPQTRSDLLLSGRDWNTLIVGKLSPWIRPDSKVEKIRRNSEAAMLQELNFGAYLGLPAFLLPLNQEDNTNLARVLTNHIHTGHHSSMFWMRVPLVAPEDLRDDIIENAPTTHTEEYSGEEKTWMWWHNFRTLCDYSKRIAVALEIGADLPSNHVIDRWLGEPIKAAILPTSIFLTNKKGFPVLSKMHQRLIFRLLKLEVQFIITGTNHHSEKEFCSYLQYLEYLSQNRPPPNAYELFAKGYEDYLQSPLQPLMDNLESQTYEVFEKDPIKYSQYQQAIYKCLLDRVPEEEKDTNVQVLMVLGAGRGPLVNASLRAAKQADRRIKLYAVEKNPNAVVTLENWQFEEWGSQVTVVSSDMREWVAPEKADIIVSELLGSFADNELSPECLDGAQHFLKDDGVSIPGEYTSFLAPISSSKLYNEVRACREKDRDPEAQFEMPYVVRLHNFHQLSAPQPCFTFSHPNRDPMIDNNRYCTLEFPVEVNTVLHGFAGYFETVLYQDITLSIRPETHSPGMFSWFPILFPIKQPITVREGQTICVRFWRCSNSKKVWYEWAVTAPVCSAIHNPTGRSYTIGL
Sequence of PRMT5/MEP50 (Q9BQA1 whole entry partner): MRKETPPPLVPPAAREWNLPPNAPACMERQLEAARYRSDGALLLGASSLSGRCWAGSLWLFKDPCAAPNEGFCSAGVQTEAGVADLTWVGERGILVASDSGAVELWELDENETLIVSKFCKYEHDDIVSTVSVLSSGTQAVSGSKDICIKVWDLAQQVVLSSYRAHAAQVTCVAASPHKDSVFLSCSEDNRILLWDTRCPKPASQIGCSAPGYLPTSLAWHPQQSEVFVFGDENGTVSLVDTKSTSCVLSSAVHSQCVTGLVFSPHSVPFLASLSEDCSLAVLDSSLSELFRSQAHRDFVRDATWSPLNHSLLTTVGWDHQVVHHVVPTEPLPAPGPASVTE

Structure (SMILES)	Ki (PRMT5/MEP50)	IC50 (HCT116 MTAP null cells; HCT116-MTAP null, 144 h)	IC50 (HCT116 WT cells; Homo sapiens, HCT-116, 144 h)	IC50 (HCT116 MTAP null cells)	IC50 (HCT116 WT cells)
Cc1cc2cc(C(=O)N(Cc3ccc(C(F)(F)F)cn3)Cc3ncccc3C)ccc2nc1N [Example 343, 2-amino-3-methyl-N-((3-methyl-2-pyridinyl)methyl)-N-((5-(trifluoromethyl)-2-pyridinyl)methyl)-6-quinolinecarboxamide]	0.66 nM	104 nM	2.83 µM	–	–
Cc1cc2cc(C(=O)N(Cc3ccc(C(F)(F)F)cn3)Cc3c(F)cccc3F)ccc2nc1N [Example 344, 2-amino-N-(2,6-difluorobenzyl)-3-methyl-N-((5-(trifluoromethyl)-2-pyridinyl)methyl)-6-quinolinecarboxamide]	0.1 nM	73 nM	1.8 µM	–	–
C[C@H](c1ccc(F)cc1F)N(Cc1ccc(C(F)(F)F)cn1)C(=O)c1cnc2nc(N)c(Br)cc2c1 [Example 346, 7-amino-6-bromo-N-((1R)-1-(2,4-difluorophenyl)ethyl)-N-((5-(trifluoromethyl)-2-pyridinyl)methyl)-1,8-naphthyridine-3-carboxamide]	0.04 nM	81 nM	1.58 µM	–	–
C[C@H](c1ncccn1)N(Cc1ccc(C(F)(F)F)cn1)C(=O)c1ccc2nc(N)c(Cl)cc2c1 [Example 347, 2-amino-3-chloro-N-((1R)-1-(2-pyrimidinyl)ethyl)-N-((5-(trifluoromethyl)-2-pyridinyl)methyl)-6-quinolinecarboxamide]	0.17 nM	168 nM	6.2 µM	–	–
C[C@H](c1ncccn1)N(Cc1ccc(Br)nn1)C(=O)c1ccc2nc(N)c(Cl)cc2c1 [Example 348, 2-amino-N-((6-bromo-3-pyridazinyl)methyl)-3-chloro-N-((1R)-1-(2-pyrimidinyl)ethyl)-6-quinolinecarboxamide]	0.73 nM	413 nM	> 10 µM	–	–
Cc1cc2cc(C(=O)N(Cc3ccc(Br)nn3)[C@H](C)c3ncccn3)c(F)cc2nc1N [Example 349, 2-amino-N-((6-bromo-3-pyridazinyl)methyl)-7-fluoro-3-methyl-N-((1R)-1-(2-pyrimidinyl)ethyl)-6-quinolinecarboxamide]	0.02 nM	36 nM	0.848 µM	–	–
C[C@H](c1ncccn1)N(Cc1ccc(Br)nn1)C(=O)c1cnc2nc(N)c(Br)cc2c1 [Example 350, 7-amino-6-bromo-N-((6-bromo-3-pyridazinyl)methyl)-N-((1R)-1-(2-pyrimidinyl)ethyl)-1,8-naphthyridine-3-carboxamide]	0.56 nM	397 nM	> 10 µM	–	–
C[C@H](c1ncccc1F)N(Cc1ccc(C#N)cn1)C(=O)c1ccc2nc(N)c(Cl)cc2c1 [Example 351, 2-amino-3-chloro-N-((5-cyano-2-pyridinyl)methyl)-N-((1R)-1-(3-fluoro-2-pyridinyl)ethyl)-6-quinolinecarboxamide]	1.29 nM	824 nM	> 10 µM	–	–
C[C@H](c1ncccc1F)N(Cc1ccc(C#N)cn1)C(=O)c1ccc2nc(N)c(Br)cc2c1 [Example 352, 2-amino-3-bromo-N-((5-cyano-2-pyridinyl)methyl)-N-((1R)-1-(3-fluoro-2-pyridinyl)ethyl)-6-quinolinecarboxamide]	0.14 nM	200 nM	8.09 µM	–	–
Cc1cc2cc(C(=O)N(Cc3ccc(C#N)cn3)[C@H](C)c3ncccc3F)c(F)cc2nc1N [Example 353, 2-amino-N-((5-cyano-2-pyridinyl)methyl)-7-fluoro-N-((1R)-1-(3-fluoro-2-pyridinyl)ethyl)-3-methyl-6-quinolinecarboxamide]	0.02 nM	73 nM	1.51 µM	–	–
C[C@H](c1ncccc1F)N(Cc1ccc(C#N)cn1)C(=O)c1cnc2nc(N)c(Br)cc2c1 [Example 354, 7-amino-6-bromo-N-((5-cyano-2-pyridinyl)methyl)-N-((1R)-1-(3-fluoro-2-pyridinyl)ethyl)-1,8-naphthyridine-3-carboxamide]	0.29 nM	378 nM	> 10 µM	–	–
Cc1cc2cc(C(=O)N(Cc3ccc(C(N)=O)cc3)Cc3ccc(C(F)(F)F)cn3)ccc2nc1N [Example 355, 2-amino-N-(4-carbamoylbenzyl)-3-methyl-N-((5-(trifluoromethyl)-2-pyridinyl)methyl)-6-quinolinecarboxamide]	0.2 nM	159 nM	3.35 µM	–	–
Cc1cc2cc(C(=O)N(Cc3ccc(C(F)(F)F)cn3)Cc3ccnc4[nH]ccc34)ccc2nc1N [Example 356, 2-amino-3-methyl-N-(1H-pyrrolo[2,3-b]pyridin-4-ylmethyl)-N-((5-(trifluoromethyl)-2-pyridinyl)methyl)-6-quinolinecarboxamide]	0.02 nM	35 nM	0.801 µM	–	–
Cc1cc2cc(C(=O)N(Cc3ccc(Br)cn3)CC(C)C)ccc2nc1N [Example 357, 2-amino-N-((5-bromo-2-pyridinyl)methyl)-3-methyl-N-(2-methylpropyl)-6-quinolinecarboxamide]	4.34 nM	385 nM	7.05 µM	–	–
Cc1cc2cc(C(=O)N(Cc3ccc(N4CCC(F)(F)C4)cn3)[C@H](C)c3ncccn3)ccc2nc1N [Example 358, 2-amino-N-((5-(3,3-difluoro-1-pyrrolidinyl)-2-pyridinyl)methyl)-3-methyl-N-((1R)-1-(2-pyrimidinyl)ethyl)-6-quinolinecarboxamide]	2.5 nM	53 nM	1.37 µM	–	–
Cc1cc2cc(C(=O)N(Cc3ccc(N4CC(F)(F)C4)cn3)[C@H](C)c3ncccn3)ccc2nc1N [Example 359, 2-amino-N-((5-(3,3-difluoro-1-azetidinyl)-2-pyridinyl)methyl)-3-methyl-N-((1R)-1-(2-pyrimidinyl)ethyl)-6-quinolinecarboxamide]	< 0.1 nM	208 nM	4.74 µM	–	–
Cc1cc2cc(C(=O)N(Cc3ccc(C(F)(F)F)cn3)[C@H](C)c3ccc(F)cc3)ccc2nc1N [Example 360, 2-amino-N-((1R)-1-(4-fluorophenyl)ethyl)-3-methyl-N-((5-(trifluoromethyl)-2-pyridinyl)methyl)-6-quinolinecarboxamide]	0.08 nM	199 nM	4.81 µM	–	–
Cc1cc2cc(C(=O)N(Cc3ccc(C(F)(F)F)cn3)[C@@H]3CCCC[C@H]3O)ccc2nc1N [Example 361, 2-amino-N-((1R,2R)-2-hydroxycyclohexyl)-3-methyl-N-((5-(trifluoromethyl)-2-pyridinyl)methyl)-6-quinolinecarboxamide]	2.1 nM	116 nM	3.22 µM	–	–
Cc1cc2cc(C(=O)N(Cc3ccc(C(F)(F)F)cn3)[C@@H]3CCC[C@H]3O)ccc2nc1N [Example 362, 2-amino-N-((1R,2R)-2-hydroxycyclopentyl)-3-methyl-N-((5-(trifluoromethyl)-2-pyridinyl)methyl)-6-quinolinecarboxamide]	0.11 nM	106 nM	2.46 µM	–	–
Cc1cc2cc(C(=O)N(Cc3ccc(C(F)(F)F)nn3)[C@@H]3CCC[C@H]3O)ccc2nc1N [Example 363, 2-amino-N-((1R,2R)-2-hydroxycyclopentyl)-3-methyl-N-((6-(trifluoromethyl)pyridazin-3-yl)methyl)quinoline-6-carboxamide]	0.2 nM	326 nM	7.16 µM	–	–
Cc1cc2cc(C(=O)N(Cc3ccc(C(F)F)cn3)[C@@H]3CCC[C@H]3O)ccc2nc1N [Example 364, 2-amino-N-((5-(difluoromethyl)pyridin-2-yl)methyl)-N-((1R,2R)-2-hydroxycyclopentyl)-3-methylquinoline-6-carboxamide]	0.18 nM	227 nM	6.2 µM	–	–
Cc1cc2cc(C(=O)N(Cc3ccc(C#N)cn3)[C@@H]3CCC[C@H]3O)ccc2nc1N [Example 365, 2-amino-N-((5-cyanopyridin-2-yl)methyl)-N-((1R,2R)-2-hydroxycyclopentyl)-3-methylquinoline-6-carboxamide]	0.42 nM	391 nM	> 10 µM	–	–
Cc1cc2cc(C(=O)N(Cc3ccc(Br)nn3)[C@@H]3CCC[C@H]3O)ccc2nc1N [Example 366, 2-amino-N-((6-bromo-3-pyridazinyl)methyl)-N-((1R,2R)-2-hydroxycyclopentyl)-3-methyl-6-quinolinecarboxamide]	0.18 nM	218 nM	7.01 µM	–	–
COc1ccc(CN(C(=O)c2ccc3nc(N)c(C)cc3c2)[C@@H]2CCC[C@H]2O)nn1 [Example 367, 2-amino-N-((1R,2R)-2-hydroxycyclopentyl)-N-((6-methoxypyridazin-3-yl)methyl)-3-methylquinoline-6-carboxamide]	0.41 nM	282 nM	> 10 µM	–	–
Cc1cc2cc(C(=O)N(Cc3ccc(C(F)(F)F)cn3)Cc3ccnc4[nH]ccc34)cnc2nc1N [Example 368, N-((1H-pyrrolo[2,3-b]pyridin-4-yl)methyl)-7-amino-6-methyl-N-((5-(trifluoromethyl)pyridin-2-yl)methyl)-1,8-naphthyridine-3-carboxamide]	0.14 nM	–	7.66 µM	411 nM	–
Cc1cc2cc(C(=O)N(Cc3ccc4[nH]ncc4c3)Cc3ccc(C(F)(F)F)cn3)ccc2nc1N [Example 369, 2-amino-N-(1H-indazol-5-ylmethyl)-3-methyl-N-((5-(trifluoromethyl)-2-pyridinyl)methyl)-6-quinolinecarboxamide]	0.17 nM	–	–	138 nM	3.4 µM
